Assay results from US8562669B2, “Methods of application of coatings composed of hydrophobic, high glass transition polymers with tunable drug release rates” (Abbott Cardiovascular Systems Inc., priority 2008, dated 2013).

Experiment: Cumulative drug release at 24 hours from coated stents (USP type 7 tester, porcine serum)
Assay type: physicochemical
Settings: stent coating of everolimus and 75:25 PLGA
Method: As used herein, any measurement of drug release, for example without limitation, release rate, release duration, or substantially released, refers to the an in-vitro measurement using a United States Pharmacopeia Type VII apparatus, using porcine serum with sodium azide optionally added (0.1% w/v) at a temperature of 37° C.
All stents were cleaned by being sonicated in isopropyl alcohol. Stents were coated with a primer layer of approximately 51 μg of 75:25 PLGA (poly(D,L-lactide-co-glycolide) provided by Boehringer Ingelheim, grade RG755S) by spraying from a solution of 2 weight % polymer in 90:10 acetone:methyl isobutyl ketone (w/w). More than one pass under the coater was required to obtain the target weight of polymer on the stent. The spraying operation was carried out with a custom made spray coater equipped with a spray nozzle, a drying nozzle, and a means to rotate and translate the stent under the nozzles with the processing parameters outlined in Table 1. Subsequent to coating, all stents were baked in a forced air convection oven at 140° C. for 30 minutes. […] More than one pass under the coater was required to obtain the target weight of polymer on the stent. The spraying operation was carried out with the same coater used for the primer spraying with the following parameters outlined in Table 2. After the drug layer coating, the stents were baked in a force air convection oven at 50° C. for 1 hour. After baking the coating, the stents were crimped onto 3.0×12 mm XIENCE V catheters, placed in protective tubular coils, and then sealed in Argon filled foil pouches. The stents were not sterilized. Cumulative release of the drug everolimus at 24 hours was determined using a United States Pharmacopeia type 7 tester in porcine serum with sodium azide 0.1% (w/v) added as the dissolution media. Everolimus released into solution was determined by HPLC analysis on the amount of drug remaining on the stent. The cumulative release expressed is one minus the fractional amount of drug remaining divided by the theoretical quantity or dose of drug per stent. In this experiment, the same drug to polymer ratio and the same polymer and drug were used but the spray coating was accomplished with different solvents. In one set of stents, the solvent was 100% acetone while for other stents the solvent was a 50:50 (w/w) mixture of acetone and methyl isobutyl ketone. The cumulative release as measured of drug after 24 hours for n=3 stents is illustrated in FIG. 1.
Stents were cleaned, coated with a primer of 75/25 PLGA, and then coated with a drug layer as described in Example 1 except that the drug to polymer ratio was 1:2 (and therefore the % solids in the coating solution was 3% (w/w)). […]

- cumulative release at 24 hours (drug:polymer 1:1, sprayed from 50:50 (w/w) acetone:methyl isobutyl ketone, 37° C.): about 96%
- cumulative release at 24 hours (drug:polymer 1:1, sprayed from 100% acetone, 37° C.): about 23%
- cumulative release at 24 hours (drug:polymer 1:2 as printed, sprayed from 50:50 (w/w) acetone:dimethyl acetamide): about 42%
- cumulative release at 24 hours (drug:polymer 1:2 as printed, sprayed from 50:50 acetone:methyl isobutyl ketone): about 83%
SMILES: CO[C@H]1C[C@@H]2CC[C@@H](C)[C@@](O)(O2)C(=O)C(=O)N2CCCC[C@H]2C(=O)O[C@H]([C@H](C)C[C@@H]2CC[C@@H](OCCO)[C@H](OC)C2)CC(=O)[C@H](C)/C=C(\C)[C@@H](O)[C@@H](OC)C(=O)[C@H](C)C[C@H](C)/C=C/C=C/C=C/1C [everolimus]
